# Biological target: T1, CETP (Homo sapiens, UniProt P11597)
# T1 construct: CETP is obtained in partially purified form from human plasma by differential centrifugation and column chromatography and used for the test; from tissue; host or cells: human plasma
# T1 sequence (P11597 18-493): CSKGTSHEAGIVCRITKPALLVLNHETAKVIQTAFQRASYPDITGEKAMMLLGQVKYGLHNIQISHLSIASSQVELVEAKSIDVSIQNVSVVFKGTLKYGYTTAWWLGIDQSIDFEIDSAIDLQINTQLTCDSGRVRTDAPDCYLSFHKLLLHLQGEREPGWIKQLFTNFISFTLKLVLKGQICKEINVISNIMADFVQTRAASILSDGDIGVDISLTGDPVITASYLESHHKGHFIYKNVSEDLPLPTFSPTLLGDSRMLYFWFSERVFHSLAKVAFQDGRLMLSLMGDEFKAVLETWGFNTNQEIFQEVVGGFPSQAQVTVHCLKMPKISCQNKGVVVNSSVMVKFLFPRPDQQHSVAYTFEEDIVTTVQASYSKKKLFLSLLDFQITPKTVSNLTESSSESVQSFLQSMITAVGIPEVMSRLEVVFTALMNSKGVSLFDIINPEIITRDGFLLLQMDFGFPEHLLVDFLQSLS
# Experiment: CETP fluorescence test with enriched CETP
# Format: biochemical
# Conditions: enriched CETP fraction from human plasma; transfer of fluorescent cholesterol ester between liposomes; 37° C. for 4 h
# Experimental: CETP is obtained in partially purified form from human plasma by differential centrifugation and column chromatography and used for the test. To this end, human plasma is adjusted to a density of 1.21 g per ml using NaBr and centrifuged at 4° C. at 50 000 rpm for 18 h. The bottom fraction (d>1.21 g/ml) is applied to a Phenyl-Sepharose 26/10 HP fast flow-column (Pharmacia), washed with PBS buffer and then eluted with distilled water. 10 parts of PBS buffer and 1% (w/v) BSA are added to the eluate. The CETP-active fractions are pooled.
# Measurement of the CETP-catalyzed transfer of a fluorescent cholesterol ester between liposomes [modified according to the procedure of Bisgaier et al., J. Lipid Res. 34, 1625 (1993)]:
# For the production of the donor liposomes, 1 mg of cholesteryl 4,4-difluoro-5,7-dimethyl-4-bora-3a,4a-diaza-s-indacene-3-dodecanoate (cholesteryl BODIPY® FL C12, Molecular Probes) is dissolved in 2 ml of chloroform with 5.35 mg of triolein and 6.67 mg of phosphatidylcholine. The solvent is removed at medium temperature in a SpeedVac and the residue is dried under high vacuum for 1 h. The residue is then dissolved in 600 μl of dioxane with gentle warming in an ultrasonic bath and this solution is added very slowly with ultrasonication to 63 ml of 50 mM Tris/HCl, 150 mM NaCl, 2 mM EDTA buffer pH 7.3 at room temperature. The suspension is then ultrasonicated under an N2 atmosphere for 30 minutes in the Branson ultrasonic bath at about 50 watts, the temperature being kept at about 20° C.
# The acceptor liposomes are obtained analogously from 86 mg of cholesteryl oleate, 20 mg of triolein and 100 mg of phosphatidylcholine dissolved in 1.2 ml of dioxane and 114 ml of the above buffer by ultrasonication at 50 watts (20° C.) for 30 minutes.
# For testing, a test mix consisting of 1 part of above buffer, 1 part of donor liposomes and 2 parts of acceptor liposomes is used.
# 50 μl of test mix are treated with 48 μl of enriched CETP fraction (1-3 μg), obtained from human plasma by means of hydrophobic chromatography, and 2 μl of a solution of the substance to be investigated in DMSO and incubated at 37° C. for 4 h.
# The change in the fluorescence at 485/535 nm is a measure of the CE transfer; the inhibition of the transfer in comparison to the control batch without substance is determined.
row,SMILES,IC50 [nM]
1,"CC(C)c1cc2c(c(-c3ccc(F)cc3)c1C(F)c1ccc(OC(F)(F)F)cc1)[C@@H](O)CC1(CCC1)O2 (mixture of isomers) [Example 40, (4S)-5-(4-Fluorophenyl)-6-{fluoro[4-(trifluoromethoxy)phenyl]methyl}-7-isopropyl-3,4-dihydrospiro[chromen-2,1′-cyclobutan]-4-ol]",50
2,"CC1(C)C[C@H](O)c2c(cc(C3CCCC3)c([C@@H](O)c3ccc(C(F)(F)F)cc3)c2-c2ccc(F)cc2)O1 [Example 1, (4S)-7-Cyclopentyl-5-(4-fluorophenyl)-6-{(S)-hydroxy[4-(trifluoromethyl)phenyl]methyl}-2,2-dimethylchroman-4-ol]",340
3,"CC(C)c1cc2c(c(-c3ccc(F)cc3)c1[C@H](F)c1ccc(C(F)(F)F)cc1)[C@@H](O)CC(C)(C)O2 [Example 8, (4S)-5-(4-fluorophenyl)-6-{(R)-fluoro[4-(trifluoromethyl)phenyl]methyl}-7-isopropyl-2,2-dimethylchroman-4-ol]",373
4,"CC(C)c1cc2c(c(-c3ccc(F)cc3)c1C(=O)c1ccc(OC(F)(F)F)cc1)[C@@H](O)CC(C)(C)O2 [Example 10, [(4S)-5-(4-Fluorophenyl)-4-hydroxy-7-isopropyl-2,2-dimethyl-3,4-dihydro-2H-chromen-6-yl][4-(trifluoromethoxy)phenyl]methanone]",93
5,"CC(C)c1cc2c(c(-c3ccc(F)cc3)c1C(=O)c1ccc(C(C)(C)C)cc1)[C@@H](O)CC(C)(C)O2 [Example 14, (4-tert-Butylphenyl)[(4S)-5-(4-fluorophenyl)-4-hydroxy-7-isopropyl-2,2-dimethyl-3,4-dihydro-2H-chromen-6-yl]methanone]",176
6,"CC(C)c1cc2c(c(-c3ccc(F)cc3)c1[C@@H](O)c1ccc(C(C)(C)C)cc1)[C@@H](O)CC(C)(C)O2 [Example 15, (4S)-6-[(S)-(4-tert-Butylphenyl)(hydroxy)methyl]-5-(4-fluorophenyl)-7-isopropyl-2,2-dimethyl-chroman-4-ol]",38
7,"CC(C)c1cc2c(c(-c3ccc(F)cc3)c1Cc1ccc(C(C)(C)C)cc1)[C@@H](O)CC(C)(C)O2 [Example 17, (4S)-6-(4-tert-Butylbenzyl)-5-(4-fluorophenyl)-7-isopropyl-2,2-dimethylchroman-4-ol]",70
8,"CC(C)c1cc2c(c(-c3ccccc3)c1C(=O)c1ccc(OC(F)(F)F)cc1)[C@@H](O)CC(C)(C)O2 [Example 18, [(4S)-4-Hydroxy-7-isopropyl-2,2-dimethyl-5-phenyl-3,4-dihydro-2H-chromen-6-yl][4-(trifluoromethoxy)phenyl]methanone]",792
9,"CC(C)c1cc2c(c(C3=CCCCC3)c1[C@@H](O)c1ccc(C(F)(F)F)cc1)[C@@H](O)CC(C)(C)O2 [Example 20, (4S)-5-Cyclohex-1-en-1-yl-6-{(S)-hydroxy[4-(trifluoromethyl)phenyl]methyl}-7-isopropyl-2,2-di-methylchroman-4-ol]",49
10,"CC(C)c1cc2c(c(C3CCCC3)c1Cc1ccc(C(F)(F)F)cc1)[C@@H](O)CC(C)(C)O2 [Example 26, (4S)-5-Cyclopentyl-7-isopropyl-2,2-dimethyl-6-[4-(trifluoromethyl)benzyl]chroman-4-ol]",48
11,O[C@H]1CC2(CCC2)Oc2cc(C3CCCC3)c(C(F)c3ccc(OC(F)(F)F)cc3)c(-c3ccc(F)cc3)c21 (stereo partly drawn) [Example 54],39
12,CC(C)c1cc2c(c(-c3ccc(F)cc3)c1[C@H](O)c1ccc(C(F)(F)F)cc1)[C@@H](O)CC1(CC1)O2 [Example 56],263

# — US8227511B2, “Substituted chromanol derivatives and their use” (Bayer Intellectual Property GmbH, priority 2006, dated 2012)
